Reference: patent publication US6602896B1, “p38MAPK inhibitor and uses thereof” (The Board of Trustees of the University of Arkansas, priority 1999, dated 2003)

Assays:
p42/44^MAPK = assay: Western blotting of phospho-p42/44MAPK in HeLa cells; assay type: cell-based; settings: SB202190 (2.5 μg/ml) in 0.5% FBS
Description: Proteins were fractionated by SDS-PAGE with an 10% acrylamide separation gel, and the separated proteins were transferred to nitrocellulose, and processed as described previously (43, 44). Briefly, membranes were incubated in 20 mM Tris-HCl, pH 7.6, 137 mM NaCl, 0.2% v/v Tween-20 (Tris/NaCl/Tween-20) with 5% w/v non-fat dried milk for 1 h, washed in Tris/NaCl/Tween-20 (3×5 min), and incubated for 1 h with primary antibody in Tris/NaCl/Tween-20 containing 1% milk at room temperature for non phospho-specific antibodies and overnight at 4° C. for phospho-specific antibodies. The following dilutions were used for individual antibodies against different proteins: p42/44^MAPK (1:1600); phosphop-42/44^MAPK (1:1000); phosphop-46/54^JNK (1:1000); phospho-p38^MAPK (1:1600); phospho-MEK-1/2 (1:1000); MKP-1 (1:1500). After further washing in Tris/NaCl/Tween-20, membranes were incubated for 1 h with horseradish peroxidase-linked anti-IgG secondary antibody (Bio-Rad, diluted 1:5000), and immunoreactive proteins were detected by ECL as described by the supplier. Quantitative analyses of protein levels were performed by densitometric scanning of the autoradiograms, and are representative of 3 or more independent experiments.

LDL receptor expression = assay: Northern blotting of LDL receptor mRNA in HeLa cells; assay type: cell-based; settings: SB202190 (2.5 μM) 4 h
Description: PD98059 was added 30 min prior to addition of SB202190. After the indicated times, total RNA was isolated and subjected to Northern blotting. […] Total RNA was isolated using TRIzol, and Northern blotting was done essentially as described earlier (43, 44). Briefly, 20 μg total cellular RNA was fractionated on 1% formaldehyde agarose gel and transferred to Zeta Probe membrane by capillary blotting. RNA blots were hybridized with LDL receptor and squalene synthase specific single-stranded M13 probes labeled with [α-^32P ]dCTP. Hybridized filters were washed and exposed to Kodak X-ray film. The relative intensities of specific bands were determined densitometrically within the linear range of the film on a model 300A laser densitometer (Molecular […], Calif.) with Image Quant software. LDL receptor mRNA was normalized to squalene synthase (SS) (included in this study) or to α-actin (data not shown) mRNA level, and data for each point were plotted as the percentage of LDL receptor mRNA as compared to controls.

p46/54^JNK [1] = settings: even at higher concentrations (100 μM); cited from earlier work
p46/54^JNK [2] = assay: Immunoblot of phospho-p46/54JNK in HepG2 cells; assay type: cell-based, human; settings: SB202190 2.5 μM
Description: 2×10^5 cells were grown and treated as described in FIG. 1. After the indicated times, equal amounts of cell lysates were blotted with anti-phospho-p42/44^MAPK antibody, phosphorylation-independent p42/44^MAPK antibody, anti-phospho p46/54^JNK antibody, anti-phospho-MEK-1/2, or phosphorylation-independent MKP-1. […]
Proteins were fractionated by SDS-PAGE with an 10% acrylamide separation gel, and the separated proteins were transferred to nitrocellulose, and processed as described previously (43, 44). […] After further washing in Tris/NaCl/Tween-20, membranes were incubated for 1 h with horseradish peroxidase-linked anti-IgG secondary antibody (Bio-Rad, diluted 1:5000), and immunoreactive proteins were detected by ECL as described by the supplier. Quantitative analyses of protein levels were performed by densitometric scanning of the autoradiograms, and are representative of 3 or more independent experiments.
HepG2 cells were incubated with SB202190, and the activity of p42/44^MAPK and p46/54^JNK was determined by immunoblot analysis with antibodies that recognized the activated phosphorylated forms of these kinases in cell extracts obtained at different times.

squalene synthase (SS) = assay: Northern blotting of squalene synthase (SS) mRNA in HepG2 cells; assay type: cell-based, human; settings: SB202190 2.5 μM
Description: 5×10^5 cells were plated on day 0. On day 2, cells were refed with fresh medium. On day. 4, cells were either left untreated (0) or treated for the indicated times with SB202190 (2.5 μM) in medium containing 0.5% FBS. Total RNA was isolated and subjected to Northern blotting to determine amounts of LDL receptor, squalene synthase (SS) genes, and actin mRNAs. Autoradiographs were quantitated densitometrically. LDL receptor mRNA levels were normalized to actin mRNA levels. In the bottom panel, results are expressed as the fold induction by SB 202190 as compared with uninduced cells (set at 1). Values obtained are the averages of three separate experiments, with the standard deviations shown. […]
Total RNA was isolated using TRIzol, and Northern blotting was done essentially as described earlier (43, 44). […] The relative intensities of specific bands were determined densitometrically within the linear range of the film on a model 300A laser densitometer (Molecular Dyanamics, Calif.) with Image Quant software. […]

[3] = system: p38^MAPK γ- and δ-isoforms; settings: cited from earlier work

## Oc1ccc(-c2nc(-c3ccc(F)cc3)c(-c3ccncc3)[nH]2)cc1 [SB202190, 4-(4-Fluorophenyl)-2-(4-hydroxyphenyl)-5-(4-pyridyl) 1H-imidazole]
p42/44^MAPK
  p42/44MAPK activity in HeLa cells: induced p42/44^MAPK activity
LDL receptor expression
  LDL receptor expression in HeLa cells: caused a increase in LDL receptor expression
p46/54^JNK [1]
  effect on p46/54JNK: without effect
p46/54^JNK [2]
  effect on activity or levels of p46/54JNK: little or no effect
Squalene synthase (SS)
  effect on expression of actin gene or sterol-sensitive gene SS: without significantly affecting expression
[3]
  inhibition of p38MAPK γ- and δ-isoforms: insensitive
[3]; even at higher concentrations (100 μM)
  effect on homologues p38MAPK γ (SAPK3) and SAPK4: without effect
